Assay results taken from PubChem BioAssay (NCI).
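Interpolation was linear, between the two tested concentrations surrounding the appropriate level; five concentrations were tested over 48 hours in 96-well plates. Here, GI50 denotes the concentration required for 50% inhibition of growth. TGI: concentration producing complete growth inhibition.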

Experiments:
Test in all cases: NCI-60 cell line screen, 48 h
[1] = test system: COLO 205 colon
[2] = test system: M14 melanoma
[3] = test system: SN12C renal
[4] = test system: NCI-H226 lung
[5] = test system: BT-549 breast
[6] = test system: HOP-62 NSCLC
[7] = test system: OVCAR-8 ovarian
[8] = test system: K-562 leukemia
[9] = test system: EKVX NSCLC
[10] = test system: MDA-MB-435
[11] = test system: UACC-257 melanoma
[12] = test system: A549 NSCLC
[13] = test system: HT29 colon
[14] = test system: SW-620 colon
[15] = test system: OVCAR-4 ovarian
[16] = test system: SR leukemia
[17] = test system: HCT-116 colon
[18] = test system: CCRF-CEM leukemia
[19] = test system: UO-31 renal
[20] = test system: NCI-H23 lung
[21] = test system: SNB-19 CNS
[22] = test system: HCC-2998 colon
[23] = test system: LOX IMVI melanoma
[24] = test system: 786-0 renal
[25] = test system: PC-3 prostate
[26] = test system: MALME-3M melanoma
[27] = test system: HL-60(TB) leukemia
[28] = test system: A498 renal
[29] = test system: TK-10 renal
[30] = test system: MCF7 breast
[31] = test system: HOP-92 NSCLC
[32] = test system: UACC-62 melanoma
[33] = test system: U251 CNS
[34] = test system: HS 578T breast
[35] = test system: SK-MEL-5 melanoma
[36] = test system: NCI/ADR-RES ovarian
[37] = test system: SNB-75 CNS
[38] = test system: CAKI-1 renal
[39] = test system: NCI-H460 lung
[40] = test system: HCT-15 colon
[41] = test system: IGROV1 ovarian
[42] = test system: SF-295 CNS
[43] = test system: RPMI-8226 leukemia
[44] = test system: SK-MEL-28 melanoma
[45] = test system: ACHN renal
[46] = test system: SK-MEL-2 melanoma
[47] = test system: SF-539 CNS
[48] = test system: OVCAR-3 ovarian
[49] = test system: NCI-H522 lung
[50] = test system: RXF 393 renal
[51] = test system: SK-OV-3 ovarian
[52] = test system: OVCAR-5 ovarian
[53] = test system: MDA-MB-231 breast
[54] = test system: MOLT-4 leukemia
[55] = test system: SF-268 CNS
[56] = test system: DU-145 prostate
[57] = test system: T-47D breast
[58] = test system: KM12 colon

C=C1C(=O)O[C@@H]2/C=C(/C)C3=CC(=O)[C@@](C)(C[C@H](OC(=O)/C(C)=C\C)[C@@H]12)O3
GI50 [1]: 676 nM
TGI [1]: 1570 nM
GI50 [2]: 1300 nM
TGI [2]: 7040 nM
TGI [3]: 12500 nM
GI50 [4]: 1160 nM
TGI [4]: 4330 nM
TGI [5]: 5340 nM
GI50 [6]: 6770 nM
TGI [6]: 19200 nM
GI50 [7]: 1000 nM
TGI [7]: 5890 nM
GI50 [8]: 955 nM
TGI [8]: 4790 nM
TGI [9]: 8360 nM
GI50 [10]: 1500 nM
TGI [10]: 10200 nM
GI50 [11]: 685 nM
TGI [11]: 4440 nM
GI50 [12]: 6000 nM
TGI [12]: 19800 nM
GI50 [13]: 1010 nM
TGI [13]: 3710 nM
GI50 [14]: 946 nM
TGI [14]: 2610 nM
GI50 [15]: 1800 nM
TGI [15]: 6230 nM
GI50 [16]: 594 nM
TGI [16]: 3740 nM
GI50 [17]: 631 nM
TGI [17]: 1490 nM
GI50 [18]: 778 nM
TGI [18]: 2920 nM
GI50 [19]: 896 nM
TGI [19]: 4000 nM
GI50 [20]: 1520 nM
TGI [20]: 6540 nM
TGI [21]: > 32500 nM
GI50 [22]: 4640 nM
TGI [22]: 9070 nM
GI50 [23]: 997 nM
TGI [23]: 4120 nM
GI50 [24]: 1130 nM
TGI [24]: 4130 nM
GI50 [25]: 4100 nM
TGI [25]: 12100 nM
TGI [26]: 5330 nM
GI50 [27]: 911 nM
TGI [27]: 2400 nM
TGI [28]: 13300 nM
TGI [29]: 1990 nM
GI50 [30]: 1120 nM
TGI [30]: 5550 nM
GI50 [31]: 1170 nM
TGI [31]: 5150 nM
GI50 [32]: 748 nM
TGI [32]: 2400 nM
GI50 [33]: 3370 nM
TGI [33]: 8690 nM
GI50 [34]: 8010 nM
TGI [34]: > 32500 nM
GI50 [35]: 2410 nM
TGI [35]: 9160 nM
GI50 [36]: 1060 nM
TGI [36]: > 32500 nM
GI50 [37]: 2370 nM
TGI [37]: 27100 nM
GI50 [38]: 1100 nM
TGI [38]: 3800 nM
GI50 [39]: 7040 nM
TGI [39]: > 32500 nM
GI50 [40]: 661 nM
TGI [40]: 1770 nM
GI50 [41]: 3940 nM
TGI [41]: 9170 nM
GI50 [42]: 5520 nM
TGI [42]: 13400 nM
GI50 [43]: 867 nM
TGI [43]: 2370 nM
GI50 [44]: 1090 nM
TGI [44]: 4600 nM
GI50 [45]: 658 nM
TGI [45]: 1430 nM
GI50 [46]: 1300 nM
TGI [46]: 7150 nM
GI50 [47]: 1440 nM
TGI [47]: 6360 nM
TGI [48]: 2840 nM
GI50 [49]: 545 nM
TGI [49]: 1210 nM
GI50 [50]: 648 nM
TGI [50]: 1580 nM
GI50 [51]: 10500 nM
TGI [51]: > 32500 nM
GI50 [52]: 1670 nM
TGI [52]: 7810 nM
GI50 [53]: 1700 nM
TGI [53]: 6990 nM
GI50 [54]: 857 nM
TGI [54]: 2880 nM
GI50 [55]: 5000 nM
TGI [55]: 15400 nM
GI50 [56]: 1500 nM
TGI [56]: 5580 nM

CN1CCC(n2cc(Nc3ncc4c(=O)n(-c5c(Cl)cccc5Cl)cc(Br)c4n3)cn2)CC1
GI50 [1]: 1140 nM
TGI [1]: 8530 nM
GI50 [57]: 887 nM
TGI [57]: 15500 nM
GI50 [2]: 65 nM
TGI [2]: 13400 nM
GI50 [3]: 235 nM
TGI [3]: 11400 nM
GI50 [4]: 1290 nM
TGI [4]: 11400 nM
GI50 [5]: 399 nM
TGI [5]: 4640 nM
GI50 [6]: 846 nM
TGI [6]: 13300 nM
GI50 [7]: 268 nM
TGI [7]: 5020 nM
GI50 [8]: 178 nM
TGI [8]: 12500 nM
GI50 [9]: 2770 nM
TGI [9]: 18000 nM
GI50 [10]: 148 nM
TGI [10]: 10300 nM
GI50 [11]: 1270 nM
TGI [11]: 9280 nM
GI50 [12]: 2320 nM
TGI [12]: 11500 nM
GI50 [13]: 142 nM
TGI [13]: 2620 nM
GI50 [14]: 1200 nM
TGI [14]: 11800 nM
GI50 [15]: 627 nM
TGI [15]: 11300 nM
GI50 [16]: 42.5 nM
TGI [16]: 1610 nM
GI50 [17]: 585 nM
TGI [17]: 10400 nM
GI50 [18]: 75 nM
TGI [18]: 6360 nM
GI50 [19]: 70.8 nM
TGI [19]: 11500 nM
GI50 [20]: 65.1 nM
TGI [20]: 594 nM
GI50 [21]: 693 nM
TGI [21]: 13600 nM
GI50 [22]: 740 nM
TGI [22]: 12500 nM
GI50 [23]: 480 nM
TGI [23]: 2920 nM
GI50 [24]: 241 nM
TGI [24]: 8320 nM
GI50 [25]: 1720 nM
TGI [25]: 16400 nM
GI50 [26]: 796 nM
TGI [26]: 18100 nM
GI50 [27]: 160 nM
TGI [27]: 853 nM
GI50 [28]: 62.8 nM
TGI [28]: 3190 nM
GI50 [29]: 178 nM
TGI [29]: 17400 nM
GI50 [30]: 181 nM
TGI [30]: 7250 nM
GI50 [31]: 102 nM
TGI [31]: 3730 nM
GI50 [32]: 901 nM
TGI [32]: 22000 nM
GI50 [33]: 787 nM
TGI [33]: 11200 nM
GI50 [34]: 538 nM
TGI [34]: 16100 nM
GI50 [35]: 419 nM
TGI [35]: 17500 nM
GI50 [36]: 288 nM
TGI [36]: 15300 nM
GI50 [37]: 611 nM
TGI [37]: 11300 nM
GI50 [38]: 98.4 nM
TGI [38]: 11500 nM
GI50 [39]: 1350 nM
TGI [39]: 8910 nM
GI50 [40]: 368 nM
TGI [40]: 11300 nM
GI50 [41]: 110 nM
TGI [41]: 7320 nM
GI50 [42]: 939 nM
TGI [42]: 15500 nM
GI50 [43]: 1150 nM
TGI [43]: 10300 nM
GI50 [44]: 4100 nM
TGI [44]: 18900 nM
GI50 [45]: 40.2 nM
TGI [45]: 11900 nM
GI50 [46]: 192 nM
TGI [46]: 1730 nM
GI50 [47]: 33.7 nM
TGI [47]: 166 nM
GI50 [48]: 223 nM
TGI [48]: 3470 nM
GI50 [49]: 424 nM
TGI [49]: 2650 nM
GI50 [50]: 80.8 nM
TGI [50]: 585 nM
GI50 [51]: 275 nM
TGI [51]: 13900 nM
GI50 [52]: 1360 nM
TGI [52]: 12300 nM
GI50 [58]: 551 nM
TGI [58]: 16300 nM
GI50 [53]: 821 nM
TGI [53]: 13400 nM
GI50 [54]: 64.6 nM
TGI [54]: 4260 nM
GI50 [55]: 2160 nM
TGI [55]: 16500 nM
GI50 [56]: 1300 nM
TGI [56]: 14800 nM
